Assay results from patent publication US20040062848A1, “Lapactic agent” (priority 2002, published 2004).

Test: Acute toxicity (LD50)
Conditions: in vivo

Substance: ε-polylysine hydrochloride
- acute toxicity in LD50: ≥ 5000 mg/kg
